Source: patent publication US20250320246A1, “3-AZASTEROID COMPOUNDS FOR THE TREATMENT OF DISEASES RELATED TO MITROCHONDRIAL FUNCTION” (NZP UK LIMITED, priority 2022, published 2025)
Structures can show the parent of a compound that is named as a salt.

Columns and labels:
[1] = tested on: sporadic PD patient fibroblasts; test: Mitochondrial membrane potential (MMP, TMRM) in sporadic PD patient fibroblasts; format: cell-based, human; details: 24 h, 3 sporadic PD patient fibroblasts; for EC50: 8-point range 0.06 nM-300 nM; for Emax: max response with highest dose of compound (300 nM), read-out: MMP % of vehicle, top %; for activity at 60 pM: max response with lowest dose of compound (0.06 nM), read-out: MMP % of vehicle, bottom %
Experimental: (§1) Primary fibroblast cells were cultured continuously in Glucose based medium (high glucose (4500 mg/L) Dulbecco's Modified Eagle's medium (DMEM; Sigma-Aldrich) supplemented with 10% fetal bovine serum (Sigma-Aldrich), 100 IU/mL penicillin, 100 μg/mL streptomycin (Lonza), 1 mM sodium pyruvate (Sigma-Aldrich) and 50 μg/mL uridine (Sigma-Aldrich)). Unless otherwise stated, 24 hours prior to analysis, the Glucose based medium was exchanged for Galactose based medium (glucose-free DMEM (Gibco) with the same supplementation and in addition, 5 mM galactose (Sigma-Aldrich)). All cells were assessed between passage 6-10.
Fibroblasts were cultured and plated into a greiner black 384 μClear® plate at a concentration of 1000 cells per well in 50 μl of media volume. The plates are left overnight in an incubator to allow the fibroblasts to adhere to the plate surface. The following morning the Glucose based medium is replaced with 25 μl of Galactose based medium. The plates were then dosed with the compounds using an ECHO® 550 liquid handling system. The wells were dosed to provide an 8-point concentration range of 0.06 nM-300 nM of compound. After dosing the wells are topped up with a further 25 μl of Galactose based medium and then left in an incubator for 24 hours. After 24 hours, the medium is removed from the wells and replaced with 25 μl phenol free Minimal essential medium supplemented with 10% FBS, 1% Penicillin-streptomycin, 1% sodium pyruvate, 0.1% uridine, 1% non-essential amino acids and 1% MEM vitamins with 80 nM TMRM (Sigma) and 10 μM Hoechst Stain (Sigma). The plate is returned to the incubator for another hour after which the stain medium is removed and replaced with 25 μl Phenol free MEM. The plate is then imaged using an IN Cell high content microscope (GE Healthcare) with fields of view per well in 2 channels, Cy3 excitation 542 nm, emission 604-64 nm; and the DAPI excitation 350 nm, emission 450-55 nm at 37° C. with CO2. After imaging the plate is disposed of and the images are Data mined using the INCell developer Toolkit (GE Healthcare).
After the assays had been repeated in triplicate per line and compound the data was then inputted into Graph pad Prism 7 software suite where a dose response curve is generated using the default “[Agonist] vs response(three parameters)” equation. […]

[2] = tested on: sporadic PD patient fibroblasts; test: Cellular ATP levels in sporadic PD patient fibroblasts, full ATP assay; format: cell-based, human; details: 24 h, 3 sporadic PD patient fibroblasts; for EC50: 8-point range 0.06 nM-300 nM; for Emax at 0.3 µM: max response with highest dose of compound (300 nM), read-out: ATP % of vehicle, top %; for activity at 60 pM: max response with lowest dose of compound (0.06 nM), read-out: ATP % of vehicle, bottom %
Experimental: as §1
The ATP protocol is generally as described in Mortiboys et al 2008. Briefly, fibroblasts were cultured as and plated into white 384 well plates at a concentration of 5000 cells per well in 50 μl of media volume. The plates are left overnight in an incubator to allow the fibroblasts to adhere to the plate surface. The following morning the Glucose based medium is replaced with 25 μl of Galactose based medium. The plates were then spiked with the compounds using a ECHO 550 liquid handling system. The wells were dosed to provide an 8-point concentration range of 0.06 nM-300 nM of compound. After dosing the wells are topped up with a further 25 μl of Galactose based medium and then left in an incubator for 24 hours. Following this incubation, the medium is removed from the plate and the wells are washed twice with sterile PBS. The wells are filled with 25 μl of Sterile PBS followed by 12.5 μl of Lysis solution from the ATPlite™ Luminescence ATP detection assay system (Perkin Elmer), including 16 cell free wells to use as blank controls. The plate is then placed on a rotary shaker for 5 mins at 700 rpm. Following the shaking 12.5 μl of ATP substrate solution (Perkin Elmer) is added to each well and a further 5 min of shaking. The plate is then placed in darkness for 10 minutes prior to reading. Using a PHERAStar® plate reader, luminescence intensity is recorded. Following the ATP assay the plates are immediately assayed for DNA content in a CyQUANT® assay.
Immediately following The ATP assay DNA content is assessed with the CyQUANT® NF Cell Proliferation Assay Kit (ThermoFisher). CyQUANT® buffer is prepared immediately before the assay and is comprised of 1 μl CyQUANT® dye per ml×1 HBSS solution. 12.5 μl of CyQUANT® buffer is added to each well. Plate left in incubator for 1 hour then read on a PHERAStar© Plate reader with excitation at 497 nm and emission at 520 nm.
ATP Quantification for each well is determined using the following formula: […]
After the assays had been repeated in triplicate per line and compound the data was then inputted into Graph pad Prism 7 software suite where a dose response curve is generated using the default “[Agonist] vs response(three parameters)” equation.
From this EC50 values, lowest response and maximal response were taken and used to calculate the Geometric mean between the 5 different lines assessed.

SMILES | EC50 ([1]; Homo sapiens, Fibroblast) | Emax ([1]; Homo sapiens, Fibroblast) | activity at 60 pM ([1]; Homo sapiens, Fibroblast) | EC50 ([2]; Homo sapiens, Fibroblast) | Emax at 0.3 µM ([2]; Homo sapiens, Fibroblast) | activity at 60 pM ([2]; Homo sapiens, Fibroblast) | EC50 ([1]; hydrochloride) | EC50 ([2]; hydrochloride)
CC(C)C[C@H](N)C(=O)N1CC[C@@]2(C)[C@H](C[C@H](O)[C@@H]3[C@@H]2CC[C@]2(C)[C@@H]([C@H](C)CCC(=O)O)CC[C@@H]32)C1 [Compound 43a, N-[(2S)-2-Amino-4-methylpentanoyl]-3-aza-7β-hydroxy-5β-cholan-24-oic acid hydrotrifluoroacetate] | 0.2 nM | 100% | 84.1% | 8.9 nM | 86% | 90.2% | – | –
C[C@H](CCC(=O)O)[C@H]1CC[C@H]2[C@@H]3[C@@H](O)C[C@@H]4CN(C)CC[C@]4(C)[C@H]3CC[C@]12C [Compound 33, N-Methyl-3-aza-7β-hydroxy-5β-cholan-24-oic acid hydrochloride] | – | – | 82.3% | – | – | 88.8% | 18.3 nM | 0.75 nM
CC[C@H](C)[C@H](N)C(=O)N1CC[C@@]2(C)[C@H](C[C@H](O)[C@@H]3[C@@H]2CC[C@]2(C)[C@@H]([C@H](C)CCCC(=O)O)CC[C@@H]32)C1 [Compound 42b, N-[(2S,3S)-2-Amino-3-methylpentanoyl]-3-aza-7β-hydroxy-25-homo-5β-cholan-25-oic acid hydrotrifluoroacetate] | 5.1 nM | 96.6% | 92.2% | 25.4 nM | 98.5% | 91.3% | – | –
C[C@H](CCCC(=O)O)[C@H]1CC[C@H]2[C@@H]3[C@@H](O)C[C@@H]4CN(C(=O)CO)CC[C@]4(C)[C@H]3CC[C@]12C [Compound 40b, N-Glycolyl-3-aza-7β-hydroxy-25-homo-5β-cholan-25-oic acid] | 26.1 nM | 131% | 95.3% | 19.5 nM | 130% | 101% | – | –
CC[C@H](C)[C@H](N)C(=O)N1CC[C@@]2(C)[C@H](C[C@H](O)[C@@H]3[C@@H]2CC[C@]2(C)[C@@H]([C@H](C)CCC(=O)O)CC[C@@H]32)C1 [Compound 42a, N-[(2S,3S)-2-Amino-3-methylpentanoyl]-3-aza-7β-hydroxy-5β-cholan-24-oic acid hydrotrifluoroacetate] | 130 nM | 69.2% | 71.3% | 134 nM | 64.5% | 89.6% | – | –
C[C@H](CCC(=O)O)[C@H]1CC[C@H]2[C@@H]3[C@@H](O)C[C@@H]4CN(C(=O)CO)CC[C@]4(C)[C@H]3CC[C@]12C [Compound 40a, N-Glycolyl-3-aza-7β-hydroxy-5β-cholan-24-oic acid] | 65.3 nM | 106% | 93.5% | 22.8 nM | 103% | 89.9% | – | –
CC(C)[C@H](N)C(=O)N1CC[C@@]2(C)[C@H](C[C@H](O)[C@@H]3[C@@H]2CC[C@]2(C)[C@@H]([C@H](C)CCCC(=O)O)CC[C@@H]32)C1 [Compound 41b, N-[(2S)-2-Amino-3-methylbutanoyl]-3-aza-7β-hydroxy-25-homo-5β-cholan-25-oic acid hydrotrifluoroacetate] | – | – | 84.6% | – | – | 78.9% | – | –
C[C@H](CCC(=O)O)[C@H]1CC[C@H]2[C@@H]3[C@@H](O)C[C@@H]4CN(C(=O)[C@@H](N)Cc5c[nH]c6ccccc56)CC[C@]4(C)[C@H]3CC[C@]12C [Compound 44a, N-[(2S)-2-Amino-3-(1H-indol-3-yl)propanoyl]-3-aza-7β-hydroxy-5β-cholan-24-oic acid hydrotrifluoroacetate] | 0.09 nM | 102% | 73.5% | 0.23 nM | 122% | 65.1% | – | –
C[C@H](CCCC(=O)O)[C@H]1CC[C@H]2[C@@H]3[C@@H](O)C[C@@H]4CN(C(=O)[C@@H](N)Cc5c[nH]c6ccccc56)CC[C@]4(C)[C@H]3CC[C@]12C [Compound 44b, N-[(2S)-2-Amino-3-(1H-indol-3-yl)propanoyl]-3-aza-7β-hydroxy-25-homo-5β-cholan-25-oic acid hydrotrifluoroacetate] | 0.11 nM | 98.8% | 77.8% | – | 98.4% | – | – | –
CC(C)C[C@H](N)C(=O)N1CC[C@@]2(C)[C@H](C[C@H](O)[C@@H]3[C@@H]2CC[C@]2(C)[C@@H]([C@H](C)CCCC(=O)O)CC[C@@H]32)C1 [Compound 43b, N-[(2S)-2-Amino-4-methylpentanoyl]-3-aza-7β-hydroxy-25-homo-5β-cholan-25-oic acid hydrotrifluoroacetate] | 1.1 nM | 103% | 86.9% | – | 80.6% | – | – | –
C[C@H](CCC(=O)O)[C@H]1CC[C@H]2[C@@H]3[C@@H](O)C[C@@H]4CN(C(=O)[C@@H](N)Cc5ccc(O)cc5)CC[C@]4(C)[C@H]3CC[C@]12C [Compound 45a, N-[(2S)-2-Amino-3-(4-hydroxyphenyl)propanoyl]-3-aza-7β-hydroxy-5β-cholan-24-oic acid hydrotrifluoroacetate] | 0.18 nM | 95.1% | 82.3% | 0.25 nM | 97.2% | 83.8% | – | –
